Data as given in ChEMBL document CHEMBL6114991, “Design, synthesis, and biological evaluation of novel quinoline carboxylic acid based styryl/alkyne hybrid molecule as a potent anti-adipogenic and antidyslipidemic agent via activation of Wnt/β-catenin pathway” (Eur J Med Chem, 2025).
Calls of active or inactive are those of the source. No cut-off for these calls is given here.

What was measured:
3T3-L1 [1] = experiment: Anti-adipogenic activity in mouse 3T3-L1 cells at 20 uM relative to control; format: functional
3T3-L1 [2] = experiment: Cytotoxicity against mouse 3T3-L1 cells assessed as cell viability at 20 uM incubated for 48 hrs by MTT assay; format: toxicity, cell-based; details: 3t3-l1, 48 h
3T3-L1 [3] = experiment: Cytotoxicity against mouse 3T3-L1 cells assessed as cell viability at 30 uM incubated for 48 hrs by MTT assay; format: toxicity, cell-based; details: 3t3-l1, 48 h
3T3-L1 [4] = experiment: Anti-adipogenic activity in MDI-induced mouse 3T3-L1 cells assessed as suppression of adipogenesis at 0.3 uM by oil red O staining based analysis; format: functional, cell-based; details: time 72.0 hrs
3T3-L1 [5] = experiment: Anti-adipogenic activity in mouse 3T3-L1 cells assessed as suppression of adipogenesis at 20 uM measured for 72 hrs by oil red O staining based analysis; format: functional
3T3-L1 [6] = experiment: Anti-adipogenic activity in mouse 3T3-L1 cells assessed as suppression of adipogenesis at 30 uM measured for 72 hrs by oil red O staining based analysis; format: functional, cell-based
3T3-L1 [7] = experiment: Anti-adipogenic activity in mouse 3T3-L1 cells assessed as reduction in lipid accumulation at 10 uM by microscopic analysis; format: functional, cell-based

Structure (SMILES)	Activity (3T3-L1 [1]; time 72.0 hrs)	Activity (3T3-L1 [2])	other results
Cc1ccc(/C=C/c2ccc(-c3cc(C(=O)O)c4cc(C)ccc4n3)cc2)cc1	inactive	–	–
O=C(O)c1ccc(/C=C/c2ccc(-c3cc(C(=O)O)c4ccccc4n3)cc2)cc1	inactive	Toxic	–
O=C(O)c1cc(-c2ccc(/C=C/c3ccc(Cl)cc3)cc2)nc2ccccc12	inactive	–	–
CCCCCCOC(=O)c1cc(-c2ccc(/C=C/c3ccc(C)cc3)cc2)nc2ccc(F)cc12	inactive	Toxic	–
O=C(O)c1cc(-c2ccc(C#Cc3ccccc3)cc2)nc2ccccc12	inactive	–	–
O=C(O)c1cc(-c2ccc(/C=C/c3ccncc3)cc2)nc2ccccc12	inactive	–	Activity (3T3-L1 [3]): Toxic; Activity (3T3-L1 [4]): Active
CC(C)(C)c1ccc(/C=C/c2ccc(-c3cc(C(=O)O)c4ccccc4n3)cc2)cc1	–	Non-toxic	Activity (3T3-L1 [5]): 70%; Activity (3T3-L1 [1]; time 72 hrs): 67%
O=C(O)c1cc(-c2ccc(/C=C/c3ccccc3)cc2)nc2ccccc12	inactive	–	–
O=C(O)c1cc(-c2ccc(/C=C/c3ccccn3)cc2)nc2ccccc12	inactive	–	–
Cc1ccc(C#Cc2ccc(-c3cc(C(=O)O)c4ccccc4n3)cc2)cc1	–	–	Activity (3T3-L1 [1]; time 72 hrs): 74%
CCCCOC(=O)c1cc(-c2ccc(/C=C/c3ccc(C)cc3)cc2)nc2ccc(F)cc12	inactive	Toxic	–
Cc1ccc(/C=C/c2ccc(-c3cc(C(=O)O)c4cc(C)cc(Cl)c4n3)cc2)cc1	inactive	–	–
CCOC(=O)c1cc(-c2ccc(/C=C/c3ccc(C)cc3)cc2)nc2ccc(F)cc12	inactive	Toxic	–
COc1ccc2nc(-c3ccc(/C=C/c4ccc(C)cc4)cc3)cc(C(=O)O)c2c1	inactive	Non-toxic	Activity (3T3-L1 [5]): 70%
Cc1ccc(/C=C/c2ccc(-c3cc(C(=O)O)c4cc(Cl)ccc4n3)cc2)cc1	–	Toxic	Activity (3T3-L1 [1]; time 72 hrs): 76%
CCCCCCCCOC(=O)c1cc(-c2ccc(/C=C/c3ccc(C)cc3)cc2)nc2ccc(F)cc12	inactive	Toxic	–
Cc1ccc(/C=C/c2ccc(-c3cc(C(=O)OC(C)C)c4cc(F)ccc4n3)cc2)cc1	inactive	Toxic	–
Cc1ccc(/C=C/c2ccc(-c3cc(C(=O)O)c4cccc(Cl)c4n3)cc2)cc1	inactive	–	–
CC(C)(C)c1ccc(C#Cc2ccc(-c3cc(C(=O)O)c4ccccc4n3)cc2)cc1	–	Non-toxic	Activity (3T3-L1 [3]): Toxic; Activity (3T3-L1 [4]): Active; Activity (3T3-L1 [5]): 70%; Activity (3T3-L1 [1]; time 72 hrs): 69%
Cc1cccc(C#Cc2ccc(-c3cc(C(=O)O)c4ccccc4n3)cc2)c1	–	Toxic	Activity (3T3-L1 [1]; time 72 hrs): 68%
Cc1ccc(/C=C/c2ccc(-c3cc(C(=O)O)c4ccccc4n3)cc2)cc1	–	Non-toxic	Activity (3T3-L1 [3]): Toxic; Activity (3T3-L1 [6]): Active; Activity (3T3-L1 [4]): inactive; Activity (3T3-L1 [5]): 70%; Activity (3T3-L1 [1]; time 72 hrs): 68%
Cc1ccc(/C=C/c2ccc(-c3cc(C(=O)O)c4cc(OC(F)(F)F)ccc4n3)cc2)cc1	inactive	–	–
CCCCCOC(=O)c1cc(-c2ccc(/C=C/c3ccc(C)cc3)cc2)nc2ccc(F)cc12	inactive	Toxic	–
COc1ccc(C#Cc2ccc(-c3cc(C(=O)O)c4ccccc4n3)cc2)cc1	–	Toxic	Activity (3T3-L1 [1]; time 72 hrs): 69%
Cc1cc([N+](=O)[O-])ccc1NS(=O)(=O)c1cc(Cl)ccc1Cl	–	–	Activity (3T3-L1 [7]): Active
CCCOC(=O)c1cc(-c2ccc(/C=C/c3ccc(C)cc3)cc2)nc2ccc(F)cc12	inactive	Toxic	–
COC(=O)c1cc(-c2ccc(/C=C/c3ccc(C)cc3)cc2)nc2ccc(F)cc12	inactive	Toxic	–
O=C(O)c1cc(-c2ccc(C#Cc3ccc(F)cc3)cc2)nc2ccccc12	inactive	Toxic	–
O=C(O)c1cc(-c2ccc(/C=C/c3ccc4ccccc4c3)cc2)nc2ccccc12	inactive	–	–
